Test results reported in patent US12616716B2, “Wound healing dressings and formulations and methods of use thereof” (Polaroid IP B.V., priority 2023, dated 2026).
Converted amounts (≈) assume the structure as drawn. Marks after values point to notes of the source that are not given here.

How the values were obtained:
[1] = tested on: Enterococcus faecalis EF19433; assay: MIC, broth microdilution in MH broth with resazurin; assay type: cell-based; conditions: for MIC EF19433: Table 17, modified Gompertz fit, only values marked ^ are reliable estimates, others unreliable
[2] = tested on: Human Keratinocyte (HaCaT) cells; assay: LDH cytotoxicity assay, HaCaT; assay type: cell-based; conditions: Table 16, summarized cell toxicity values
Description: (§1) Primary Human Dermal Fibroblast (HDFs) and Human Keratinocyte (HaCaT) cells were selected for cytotoxicity and proliferation testing. HDFs were cultured in high glucose, no glutamine, no phenol red, Dulbecco's Modified Eagle Medium (DMEM) (GIBCO™). HDF media was further supplemented with 10% heat-inactivated fetal bovine serum (GIBCO™), 1% L-glutamine (GIBCO™) and 1% Penicillin-streptomycin (GIBCO™). HaCaTs cells were cultured in high glucose, no glutamine, no calcium DMEM (GIBCO™) supplemented with 10% heat inactivated foetal bovine serum, 1% L-glutamine, 1% Penicillin-streptomycin 1 mM calcium chloride (Sigma) throughout.
(§2) Mammalian cell populations were maintained in standard culture conditions at 37° C., 5% CO2 and >95% relative humidity. Upon reaching 80% total confluency, cells were removed from the incubator, the culture media aspirated, and the monolayer washed with Dulbecco's […] (DPBS). After washing, 10 mL of 1% trypsin (GIBCO™) was added to the flask and incubated to facilitate the detachment of cells from the culture vessel. Following dissociation, 10 mL of culture media was then added to each flask to neutralize the trypsin enzyme activity. The total 20-mL flask volume was transferred into a universal tube and centrifuged at 400 rcf for 5 minutes. Once complete, the pellet of cells was re-suspended in 10 mL warmed culture media and the number of cells per mL was determined using a hemocytometer counting chamber. Cell suspensions were then adjusted to 5×10^4 cells/mL for HDFs and 1×10^5 cells/mL for HaCaTs. 100 μL of the cell suspension was added to each well of a sterile, cell-culture-treated 96-well microtiter plate. The plates were incubated in standard culture conditions for 16-24 hours to allow cellular adherence to the culture vessel. […] Culture plates were removed from the incubator, the media removed; and monolayers washed with 100 μL of warmed DPBS. The contents of the test item dilution plates were transferred to the culture plates. […]
(§3) The secretion of lactate dehydrogenase (LDH) enzyme was used for quantitatively measuring cell damage and cytotoxicity. As damage to the cell plasma membrane releases LDH into the cell culture media, the extracellular LDH in the media can be quantified by a coupled enzymatic reaction in which LDH catalyzes the conversion of lactate to pyruvate via NAD+ reduction to NADH. […]
(§4) Following incubation with the selected compounds, 50 μL of media from each well was transferred to the corresponding well of a fresh 96 well culture plate. The presence of Lactate dehydrogenase (LDH) was then quantified using the INVITROGEN™ CyQUANT™ LDH Cytotoxicity Assay, fluorescence kit. Total fluorescence was measured by reading the plates on a plate reader at an excitation of 560 nm and an emission of 590 nm. […]

[3] = tested on: Pseudomonas aeruginosa 27853; assay: MIC, broth microdilution in MH broth with resazurin; assay type: cell-based; conditions: Table 17; modified Gompertz fit; only values marked ^ are reliable estimates, others unreliable
[4] = tested on: Staphylococcus aureus ATCC 29213; assay: as above; assay type: cell-based; conditions: for MIC SA29213: Table 17, modified Gompertz fit, only values marked ^ are reliable estimates, others unreliable
[5] = tested on: Primary Human Dermal Fibroblast (HDFs); assay: LDH cytotoxicity assay, HDF; assay type: cell-based; conditions: Table 16, summarized cell toxicity values
Description: as §1, §2, §3, §4

[6] = tested on: Escherichia coli EC25922; assay: MIC, broth microdilution in MH broth with resazurin; assay type: cell-based; conditions: Table 17; modified Gompertz fit; only values marked ^ are reliable estimates, others unreliable
[7] = tested on: Klebsiella pneumoniae KL1; assay: as above; assay type: cell-based; conditions: Table 17; modified Gompertz fit; only values marked ^ are reliable estimates, others unreliable
[8] = tested on: Enterococcus faecalis EF51299; assay: as above; assay type: cell-based; conditions: for MIC EF51299: Table 17, modified Gompertz fit, only values marked ^ are reliable estimates, others unreliable
[9] = tested on: Staphylococcus aureus NRS384; assay: as above; assay type: cell-based; conditions: Table 21 (Example 8); Staphylococcus aureus NRS384; read-out: MIC Concentration
[10] = tested on: Staphylococcus aureus MR1; assay: as above; assay type: cell-based; conditions: Table 17; modified Gompertz fit; only values marked ^ are reliable estimates, others unreliable
[11] = tested on: Enterococcus faecalis EF19433; assay: MBC, spot plating after 24 h in MH broth; conditions: Table 18; —: no activity observed
Description: (§5) To determine MBC compound concentrations breakpoints were estimated from MIC curves. Overnight cultures were set up as described above for all bacterial strains. The following day overnight cultures were adjusted to give a cell density of 5×10^5 cells per mL. Briefly, cultures were adjusted to the McFarland standard (0.08-0.12) and diluted (1:150). Adjusted cultures were inoculated into 96 well plates with 50 μL sterile Muller-Hinton broth (MHB) and 2 concentrations of each compound. […] MBC cultures were quantified by serial dilution in a 96 well plate and spot plating onto Muller-Hinton agar (MHA). MHA plates were incubated at 37° C. for 24 h and counted. Results are presented as CFU per mL.
(§6) To determine MBC compound concentrations, breakpoints were estimated from MIC curves. Overnight cultures were set up as described above for all bacterial strains. The following day overnight cultures were adjusted to give a cell density of 5×10^5 cells per mL. Briefly, cultures were adjusted to the McFarland standard (0.08-0.12) and diluted (1:150). Adjusted cultures were inoculated into 96 well plates with 50 μL sterile Muller-Hinton broth (MHB) and 2 concentrations of each compound. […] MBC cultures were quantified by serial dilution in a 96 well plate and spot plating onto Muller-Hinton agar (MHA). MHA plates were incubated at 37° C. for 24 hours and counted.
(§7) These compounds were tested for their MBC against a panel of ATCC and nosocomial bacteria.

[12] = tested on: Escherichia coli EC25922; assay: MBC, spot plating after 24 h in MH broth; conditions: Table 18; —: no activity observed
Description: as §5, §6, §7

[13] = tested on: Staphylococcus aureus ATCC 29213; assay: MBC, spot plating after 24 h in MH broth; conditions: Table 18; —: no activity observed
Description: as §5, §6, §7

[14] = tested on: Staphylococcus aureus MR1; assay: MBC, spot plating after 24 h in MH broth; conditions: Table 18; —: no activity observed
Description: as §5, §6, §7

[15] = tested on: Klebsiella pneumoniae KL1; assay: MBC, spot plating after 24 h in MH broth; conditions: Table 18; —: no activity observed
Description: as §5
(§8) To determine MBC compound concentrations, breakpoints were estimated from MIC curves. Overnight cultures were set up as described above for all bacterial strains. The following day overnight cultures were adjusted to give a cell density of 5×10^5 cells per mL. Briefly, cultures were adjusted to the McFarland standard (0.08-0.12) and diluted (1:150). Adjusted cultures were inoculated into 96 well plates with 50 μL sterile Muller-Hinton broth (MHB) and 2 concentrations of each compound. […] MBC cultures were quantified by serial dilution in a 96 well plate and spot plating onto Muller-Hinton agar (MHA). MHA plates were incubated at 37° C. for 24 hours and counted. […]

[16] = tested on: Enterococcus faecalis EF51299; assay: MBC, spot plating after 24 h in MH broth; conditions: Table 18; —: no activity observed
Description: as §5, §8

[17] = tested on: mammalian cells (HDF and HaCaT); assay: Mammalian cell cytotoxicity (LDH and MTS), both cell populations; assay type: cell-based, human
Description: as §1
Mammalian cell populations were maintained in standard culture conditions at 37° C., 5% CO2 and >95% relative humidity. […] Once complete, the pellet of cells was re-suspended in 10 mL warmed culture media and the number of cells per mL was determined using a hemocytometer counting chamber. […]
as §3

[18] = tested on: S. aureus NRS 384; assay: Mouse Staphylococcus aureus-induced wound infection model, bacteria load in wound site; conditions: 50 μL/wound site
[19] = tested on: all tested bacteria (Gram-positive and Gram-negative); assay: MIC / antimicrobial activity over the whole panel of tested bacteria

| Structure (SMILES) | MIC EF19433 [1] | Mammalian Cell Cytotoxicity, HaCaT [2] [µM] | MIC PA27853 [3] | MIC SA29213 [4] [µM] | Mammalian Cell Cytotoxicity, HDF [5] [µM] | MIC EC25922 [6] [µM] | MIC KL1 [7] | MIC EF51299 [8] | MIC MR1 [10] | MBC EF19433 [11] [µM] | MBC EC25922 [12] [µM] | MBC SA29213 [13] [µM] | MBC MR1 [14] [µM] | also measured |
| --- | --- | --- | --- | --- | --- | --- | --- | --- | --- | --- | --- | --- | --- | --- |
| CCCCCC[N+](C)(C)CCOCCO.[Br-] [Compound 40598_109448] | Unstable | >100 | 0.06 µM | 1.93 | >100 | 0.83 | 48.98 µM |  |  |  |  |  |  |  |
| CC(=O)O[C@H]1C[C@@]2(C)[C@@H](C[C@@H](O)[C@H]3[C@@]4(C)CC[C@@H](O)[C@@H](C)[C@@H]4CC[C@@]32C)/C1=C(\CCC=C(C)C)C(=O)O [fusidic acid] |  |  |  |  |  |  |  |  |  |  |  |  |  | MIC ([1]; Table 21 (Example 8), Enterococcus faecalis EF19433, read-out: MIC Concentration): 5 µM (≈ 2.58 µg/mL); MIC ([8]; Table 21 (Example 8), Enterococcus faecalis EF51299, read-out: MIC Concentration): 5 µM (≈ 2.58 µg/mL); MIC ([4]; ATCC29213, Table 21 (Example 8), Staphylococcus aureus 29213, read-out: MIC Concentration): 0.04 µM (≈ 0.0207 µg/mL); MIC [9]: 0.04 µM (≈ 0.0207 µg/mL) |
| CCCCCCCCCCCC[N+](C)(C)CCOCCO.[Br-] [Compound 40597_109444] | 1.63^ μM | 100 | 2.84 µM |  | 100 |  | 0.01 µM | 27.19^ μM | 0.94 µM |  |  |  |  |  |
| CCCCCCCCCCCCCCCCCC[N+](C)(C)CCOCCO.[Br-] [Compound 39637_105543] | 3.20^ μM | 6.3 | 53.54 µM | 3.16 | 6.3 | 42.96 | +infinity | 62.65^ μM | 10.58^ μM | 1.57 | 25 | 1.57 | 6.25 |  |
| CCCCCCCCCCCCCCCCCC[N+](C)(C)CCOCCO.[Br-] [Compound 39637_109466] | 2.59^ μM | 6.3 | 62.14^ μM | 3.05 | 6.3 | 59.94 | 2.06 µM | 16.81^ μM | 10.78^ μM | 1.57 | 25 | 1.57 | 6.25 | MBC KL1 [15]: 50 µM; MBC EF51299 [16]: 1.57 µM |
| CCCCCCCCCCCCCCCCCC[N+](C)(C)CCOCCO.[Br-] [Compound 39637] |  |  |  |  |  |  |  |  |  |  |  |  |  | concentration with almost total/complete absence of viable cells ([17]; HDF and HaCaT): 6.3 µM; concentration at which LDH secretion began to rapidly exceed control levels ([17]; HDF and HaCaT populations): 3.12 µM; Ig(CFU/wound site) 24 h p.i. ([18]; Study I, 100 μM, once a day): 8.49 ± 0.30 Ig(CFU/wound site); ΔIg(CFU/wound site) vs 12 h infection control ([18]; Study I, 100 μM, once a day): −0.23 ± 0.06 Ig(CFU/wound site); ΔIg(CFU/wound site) vs 24 h infection control ([18]; Study I, 100 μM, once a day): −0.29 ± 0.30 Ig(CFU/wound site); Ig(CFU/wound site) 12 h p.i. ([18]; Study I, 100 μM, once a day from 5 min p.i., inoculum 4.20E+06 CFU/wound site): 8.35 ± 0.06 Ig(CFU/wound site); Ig(CFU/wound site) 24 h p.i. ([18]; Study II, 300 μM, once a day): 8.90 ± 0.10 Ig(CFU/wound site); ΔIg(CFU/wound site) vs 12 h infection control ([18]; Study II, 300 μM, once a day): −0.45 ± 0.40 Ig(CFU/wound site); ΔIg(CFU/wound site) vs 24 h infection control ([18]; Study II, 300 μM, once a day): 0.04 ± 0.10 Ig(CFU/wound site); Ig(CFU/wound site) 12 h p.i. ([18]; Study II, 300 μM, once a day, inoculum 2.50E+06 CFU/wound site): 8.14 ± 0.40 Ig(CFU/wound site); Ig(CFU/wound site) 12 h p.i. ([18]; Study II, 1000 μM, once a day): 5.44 ± 0.94 Ig(CFU/wound site); Ig(CFU/wound site) 24 h p.i. ([18]; Study II, 1000 μM, once a day): 5.81 ± 1.79 Ig(CFU/wound site); ΔIg(CFU/wound site) vs 12 h infection control ([18]; Study II, 1000 μM, once a day): −3.15 ± 0.94 Ig(CFU/wound site); ΔIg(CFU/wound site) vs 24 h infection control ([18]; Study II, 1000 μM, once a day): −3.06+1.79** Ig(CFU/wound site); antimicrobial activity towards the gram +ve species Enterococcus faecalis and Staphylococcus aureus (in words) [19]: strong antimicrobial activity |
